Data from patent publication US12391737B2, “Soluble NPY2 receptor agonists” (Boehringer Ingelheim International GmbH, priority 2020, dated 2025).

Tests used:
[1] = molecular target: T1, Human Neuropeptide Y2 Receptor (Homo sapiens, UniProt P49146); test: Radioligand binding competition assay (RLB); settings: Table 3, 125I-PYY(1-36) competition; read-out: Ki
T1 construct: purchased CHEMICON HTS066M
T1 sequence (P49146 1-381): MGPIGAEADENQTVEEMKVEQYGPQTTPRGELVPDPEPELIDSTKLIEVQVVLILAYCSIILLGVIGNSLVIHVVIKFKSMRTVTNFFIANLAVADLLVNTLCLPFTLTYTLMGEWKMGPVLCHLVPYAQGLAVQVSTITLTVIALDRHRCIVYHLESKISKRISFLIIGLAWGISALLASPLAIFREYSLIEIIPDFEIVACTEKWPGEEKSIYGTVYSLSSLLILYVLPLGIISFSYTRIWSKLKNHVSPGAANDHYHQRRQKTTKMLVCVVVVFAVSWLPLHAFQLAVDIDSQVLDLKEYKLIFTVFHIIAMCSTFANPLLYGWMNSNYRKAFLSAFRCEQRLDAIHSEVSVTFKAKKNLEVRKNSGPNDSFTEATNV
Summary of the method: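 Filtration binding assay on human Y2 receptor membrane preparation, 0.5 μg protein per well, in 50 mM HEPES pH 7.4 containing 5 mM MgCl2, 1 mM CaCl2 and 0.2% ovalbumin. Plates shake 2 h at room temperature before harvest and scintillation counting.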

Solubility determination = settings: for Sol6: pH 6; for Sol7: pH 7
Summary of the method: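 Solubility is derived from the ratio of reversed-phase peak areas, filtered sample over a control dissolved at 1 mg/ml in 50% acetonitrile. Peptides are agitated for 2 hours at room temperature in 0.1 M sodium diphosphate at pH 6.4 or 7.0, aiming at 10 mg/ml.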

SMILES	Ki [1] [nM]	Sol6 (Solubility determination) [mg/mL]	Sol7 (Solubility determination) [mg/mL]
CC(C)CC(=O)N[C@@H](C)C(=O)N1CCC[C@H]1C(=O)N[C@@H](CCC(=O)O)C(=O)N[C@@H](CCCCNC(=O)CCCCCNC(=O)CC[C@H](NC(=O)CCCCCCCCCCCCCCCCC(=O)O)C(=O)O)C(=O)N1CCC[C@H]1C(=O)N[C@@H](CCC(=O)O)C(=O)N[C@@H](CCC(=O)O)C(=O)N[C@@H](CC(=O)O)C(=O)N[C@@H](C)C(=O)N[C@H](C(=O)N1CCC[C@H]1C(=O)N[C@@H](CCC(=O)O)C(=O)N[C@@H](CCC(=O)O)C(=O)N[C@@H](CC(C)C)C(=O)N[C@@H](CCC(N)=O)C(=O)N[C@@H](CCCNC(=N)N)C(=O)N[C@@H](Cc1ccc(O)cc1)C(=O)N[C@@H](Cc1ccc(O)cc1)C(=O)N[C@H](C(=O)N[C@@H](CO)C(=O)N[C@@H](CC(C)C)C(=O)N[C@@H](CCCNC(=N)N)C(=O)N[C@@H](Cc1c[nH]cn1)C(=O)N[C@@H](Cc1ccc(O)cc1)C(=O)N[C@@H](Cc1ccc(O)cc1)C(=O)N[C@@H](CC(N)=O)C(=O)N[C@@H](Cc1c[nH]c2ccccc12)C(=O)N[C@@H](CC(C)C)C(=O)N[C@@H](CO)C(=O)N[C@@H](CCCNC(=N)N)C(=O)N[C@@H](CCC(N)=O)C(=O)N[C@@H](CCCNC(=N)N)C(=O)N[C@@H](Cc1ccc(O)cc1)C(N)=O)C(C)C)[C@@H](C)O [Compound 155, N{alpha-4}-(3-methylbutanoyl)-N{epsilon-7}-(6-[(4S)-4-carboxy-4-(17-carboxyheptadecanamido)butanamido]hexanoyl)-[4A,7K,9E,13T,18Q,22V,28Y,30W,31L,32S]-hPYY(4-36)]	7.6	>10.0	>10.0
CC[C@H](C)[C@H](NC(=O)[C@H](Cc1ccc(O)cc1)NC(=O)[C@H](Cc1ccc(O)cc1)NC(=O)[C@H](CCCNC(=N)N)NC(=O)[C@H](CCC(N)=O)NC(=O)[C@H](CC(C)C)NC(=O)[C@H](CCC(=O)O)NC(=O)[C@H](CCC(=O)O)NC(=O)[C@@H]1CCCN1C(=O)[C@H](CCC(=O)O)NC(=O)[C@H](C)NC(=O)[C@H](CC(=O)O)NC(=O)[C@H](CCC(=O)O)NC(=O)[C@H](CCC(=O)O)NC(=O)[C@@H]1CCCN1C(=O)[C@H](CCCCNC(=O)CCCCCNC(=O)CC[C@H](NC(=O)CCCCCCCCCCCCCCCCC(=O)O)C(=O)O)NC(=O)[C@H](C)NC(=O)[C@@H]1CCCN1C(=O)[C@H](C)NC(=O)CC(C)C)C(=O)N[C@@H](CO)C(=O)N[C@@H](CC(C)C)C(=O)N[C@@H](CCCNC(=N)N)C(=O)N[C@@H](Cc1c[nH]cn1)C(=O)N[C@@H](Cc1ccc(O)cc1)C(=O)N[C@@H](Cc1ccc(O)cc1)C(=O)N[C@@H](CC(N)=O)C(=O)N[C@@H](Cc1c[nH]c2ccccc12)C(=O)N[C@@H](CC(C)C)C(=O)N[C@H](C(=O)N[C@@H](CCCNC(=N)N)C(=O)N[C@@H](CCC(N)=O)C(=O)N[C@@H](CCCNC(=N)N)C(=O)N[C@@H](Cc1ccc(O)cc1)C(N)=O)[C@@H](C)O [Compound 33, N{alpha-4}-(3-methylbutanoyl)-N{epsilon-7}-(6-[(4S)-4-carboxy-4-(17-carboxyheptadecanamido)butanamido]hexanoyl)[4A,6A,7K,9E,13E,18Q,22I,28Y,30W,31L]-hPYY(4-36)]	2.53	7.2	8.3
CC(C)CC(=O)N[C@@H](C)C(=O)N1CCC[C@H]1C(=O)N[C@@H](CCC(=O)O)C(=O)N[C@@H](CCCCNC(=O)CCCCCNC(=O)CC[C@H](NC(=O)CCCCCCCCCCCCCCCCC(=O)O)C(=O)O)C(=O)N1CCC[C@H]1C(=O)N[C@@H](CCC(=O)O)C(=O)N[C@@H](CCC(=O)O)C(=O)N[C@@H](CC(=O)O)C(=O)N[C@@H](C)C(=O)N[C@H](C(=O)N1CCC[C@H]1C(=O)N[C@@H](CCC(=O)O)C(=O)N[C@@H](CCC(=O)O)C(=O)N[C@@H](CC(C)C)C(=O)N[C@@H](CCC(N)=O)C(=O)N[C@@H](CCCNC(=N)N)C(=O)N[C@@H](Cc1ccc(O)cc1)C(=O)N[C@@H](Cc1ccc(O)cc1)C(=O)N[C@H](C(=O)N[C@@H](CC(C)C)C(=O)N[C@@H](CC(C)C)C(=O)N[C@@H](CCCNC(=N)N)C(=O)N[C@@H](Cc1c[nH]cn1)C(=O)N[C@@H](Cc1ccc(O)cc1)C(=O)N[C@@H](Cc1ccc(O)cc1)C(=O)N[C@@H](CC(N)=O)C(=O)N[C@@H](Cc1c[nH]c2ccccc12)C(=O)N[C@@H](CC(C)C)C(=O)N[C@H](C(=O)N[C@@H](CCCNC(=N)N)C(=O)N[C@@H](CCC(N)=O)C(=O)N[C@@H](CCCNC(=N)N)C(=O)N[C@@H](Cc1ccc(O)cc1)C(N)=O)[C@@H](C)O)C(C)C)[C@@H](C)O [Compound 49, N{alpha-4}-(3-methylbutanoyl)-N{epsilon-7}-(6-[(4S)-4-carboxy-4-(17-carboxyheptadecanamido)butanamido]hexanoyl)-[4A,7K,9E,13T,18Q,22V,23L,28Y,30W,31L]-hPYY(4-36)]	11.6	>10.0	>10.0

Continued by falling Ki [1], values first:

Ki [1] [nM]	Sol6 (Solubility determination) [mg/mL]	Sol7 (Solubility determination) [mg/mL]	SMILES
6.8	6.0	9.5	CC(C)CC(=O)N[C@@H](C)C(=O)N1CCC[C@H]1C(=O)N[C@@H](CCC(=O)O)C(=O)N[C@@H](CCCCNC(=O)CCCCCNC(=O)CC[C@H](NC(=O)CCCCCCCCCCCCCCCCC(=O)O)C(=O)O)C(=O)N1CCC[C@H]1C(=O)N[C@@H](CCC(=O)O)C(=O)N[C@@H](CCC(=O)O)C(=O)N[C@@H](CC(C)C)C(=O)N[C@@H](C)C(=O)N[C@H](C(=O)N1CCC[C@H]1C(=O)N[C@@H](CCC(=O)O)C(=O)N[C@@H](CCC(=O)O)C(=O)N[C@@H](CC(C)C)C(=O)N[C@@H](CCC(N)=O)C(=O)N[C@@H](CCCNC(=N)N)C(=O)N[C@@H](Cc1ccc(O)cc1)C(=O)N[C@@H](Cc1ccc(O)cc1)C(=O)N[C@H](C(=O)N[C@@H](CO)C(=O)N[C@@H](CC(C)C)C(=O)N[C@@H](CCCNC(=N)N)C(=O)N[C@@H](Cc1c[nH]cn1)C(=O)N[C@@H](Cc1ccc(O)cc1)C(=O)N[C@@H](Cc1ccc(O)cc1)C(=O)N[C@@H](CC(N)=O)C(=O)N[C@@H](Cc1c[nH]c2ccccc12)C(=O)N[C@@H](CC(C)C)C(=O)N[C@H](C(=O)N[C@@H](CCCNC(=N)N)C(=O)N[C@@H](CCC(N)=O)C(=O)N[C@@H](CCCNC(=N)N)C(=O)N[C@@H](Cc1ccc(O)cc1)C(N)=O)[C@@H](C)O)C(C)C)[C@@H](C)O [Compound 153, N{alpha-4}-(3-methylbutanoyl)-N{epsilon-7}-(6-[(4S)-4-carboxy-4-(17-carboxyheptadecanamido)butanamido]hexanoyl)-[4A,7K,9E,11L,13T,18Q,22V,28Y,30W,31L]-hPYY(4-36)]
3.32	9.7	9.9	CC(C)CC(=O)N[C@@H](C)C(=O)N1CCC[C@H]1C(=O)N[C@@H](CCC(=O)O)C(=O)N[C@@H](CCCCNC(=O)CCCCCNC(=O)CC[C@H](NC(=O)CCCCCCCCCCCCCCCCC(=O)O)C(=O)O)C(=O)N1CCC[C@H]1C(=O)N[C@@H](CCC(=O)O)C(=O)N[C@@H](CCC(=O)O)C(=O)N[C@@H](CCC(N)=O)C(=O)N[C@@H](C)C(=O)N[C@H](C(=O)N1CCC[C@H]1C(=O)N[C@@H](CCC(=O)O)C(=O)N[C@@H](CCC(=O)O)C(=O)N[C@@H](CC(C)C)C(=O)N[C@@H](CCC(N)=O)C(=O)N[C@@H](CCCNC(=N)N)C(=O)N[C@@H](Cc1ccc(O)cc1)C(=O)N[C@@H](Cc1ccc(O)cc1)C(=O)N[C@H](C(=O)N[C@@H](CO)C(=O)N[C@@H](CC(C)C)C(=O)N[C@@H](CCCNC(=N)N)C(=O)N[C@@H](Cc1c[nH]cn1)C(=O)N[C@@H](Cc1ccc(O)cc1)C(=O)N[C@@H](Cc1ccc(O)cc1)C(=O)N[C@@H](CC(N)=O)C(=O)N[C@@H](Cc1c[nH]c2ccccc12)C(=O)N[C@@H](CC(C)C)C(=O)N[C@H](C(=O)N[C@@H](CCCNC(=N)N)C(=O)N[C@@H](CCC(N)=O)C(=O)N[C@@H](CCCNC(=N)N)C(=O)N[C@@H](Cc1ccc(O)cc1)C(N)=O)[C@@H](C)O)C(C)C)[C@@H](C)O [Compound 9, N{alpha-4}-(3-methylbutanoyl)-N{epsilon-7}-(6-[(4S)-4-carboxy-4-(17-carboxyheptadecanamido)butanamido]hexanoyl)[4A,7K,9E,11Q,13T,18Q,22V,28Y,30W,31L]-hPYY(4-36)]
2.85	9.7	10.0	CC(C)CC(=O)N[C@@H](C)C(=O)N1CCC[C@H]1C(=O)N[C@@H](CCC(=O)O)C(=O)N[C@@H](CCCCNC(=O)CCCCCNC(=O)CC[C@H](NC(=O)CCCCCCCCCCCCCCCCC(=O)O)C(=O)O)C(=O)N1CCC[C@H]1C(=O)N[C@@H](CCC(=O)O)C(=O)N[C@@H](CCC(=O)O)C(=O)N[C@@H](CC(=O)O)C(=O)N[C@@H](C)C(=O)N[C@H](C(=O)N1CCC[C@H]1C(=O)N[C@@H](CCC(=O)O)C(=O)N[C@@H](CCC(=O)O)C(=O)N[C@@H](CC(C)C)C(=O)N[C@@H](CCC(N)=O)C(=O)N[C@@H](CCCNC(=N)N)C(=O)N[C@@H](Cc1ccc(O)cc1)C(=O)N[C@@H](Cc1ccc(O)cc1)C(=O)N[C@H](C(=O)N[C@H](C(=O)N[C@@H](CC(C)C)C(=O)N[C@@H](CCCNC(=N)N)C(=O)N[C@@H](Cc1c[nH]cn1)C(=O)N[C@@H](Cc1ccc(O)cc1)C(=O)N[C@@H](Cc1ccc(O)cc1)C(=O)N[C@@H](CC(N)=O)C(=O)N[C@@H](Cc1c[nH]c2ccccc12)C(=O)N[C@@H](CC(C)C)C(=O)N[C@H](C(=O)N[C@@H](CCCNC(=N)N)C(=O)N[C@@H](CCC(N)=O)C(=O)N[C@@H](CCCNC(=N)N)C(=O)N[C@@H](Cc1ccc(O)cc1)C(N)=O)[C@@H](C)O)[C@@H](C)O)C(C)C)[C@@H](C)O [Compound 148, N{alpha-4}-(3-methylbutanoyl)-N{epsilon-7}-(6-[(4S)-4-carboxy-4-(17-carboxyheptadecanamido)butanamido]hexanoyl)-[4A,7K,9E,13T,18Q,22V,23T,28Y,30W,31L]-hPYY(4-36)]
